Structures can show the parent of a compound that is named as a salt.

Turning to `O=c1cc(-c2ccncn2)nc2n1CCC1(CCC1)N2Cc1ccccc1` [compound 14, 1′-(phenylmethyl)-8′-pyrimidin-4-yl-3′,4′-dihydrospiro-[cyclobutane-1,2′-pyrimido[1,2-a]pyrimidin]-6′(1′H)-one], the melting point (in general, the temperature, or range, at which the solid turns liquid) was 149 to 150 °C.
Compound `O=c1cc(-c2ccncn2)nc2n1CCC1(CCCC1)N2C[C@@H](O)c1ccccc1` [compound 4, 1′-[(2S)-2-Hydroxy-2-phenylethyl]-8′-pyrimidin-4-yl-3′,4′-dihydrospiro-[cyclopentane-1,2′-pyrimido[1,2-a]pyrimidin]-6′(1′H)-one] yielded a melting point of 157 to 158 °C.
Compound `O=C(CN1c2nc(-c3ccncc3)cc(=O)n2CCC12CCC2)c1ccccc1` (as salt: hydrochloride) [compound 9, 1′-(2-Oxo-2-phenylethyl)-8′-pyridin-4-yl-3′,4′-dihydrospiro[cyclobutane-1,2′-pyrimido[1,2-a]pyrimidin]-6′(1′H)-one] showed a melting point of 242 to 244 °C.
`O=c1cc(-c2ccncc2)nc2n1CCC1(CCC1)N2Cc1ccccc1` (as salt: hydrochloride) [compound 18, 1′-(phenylmethyl)-8′-pyridin-4-yl-3′,4′-dihydrospiro-[cyclobutane-1,2′-pyrimido[1,2-a]pyrimidin]-6′(1′H)-one]: the melting point is 213 to 215 °C.
`O=c1cc(-c2ccncc2)nc2n1CCC1(CCC1)N2C[C@@H](O)c1ccccc1` (as salt: hydrochloride) [compound 8, 1′-[(2S)-2-Hydroxy-2-phenylethyl]-8′-pyridin-4-yl-3′,4′-dihydrospiro-[cyclobutane-1,2′-pyrimido[1,2-a]pyrimidin]-6′(1′H)-one] showed a melting point of 214 to 216 °C.
`O=C(CN1c2nc(-c3ccncc3)cc(=O)n2CCC12CC2)c1ccccc1` (as salt: hydrochloride) [compound 2, 1′-(2-Oxo-2-phenylethyl)-8′-pyridin-4-yl-3′,4′-dihydrospiro[cyclopropane-1,2′-pyrimido[1,2-a]pyrimidin]-6′(1′H)-one] came in with a melting point of 232 to 234 °C.
Compound `O=c1cc(-c2ccncc2)nc2n1CCC1(CCCC1)N2C[C@H](O)c1ccccc1` (as salt: hydrochloride) [compound 15, 1′-[(2R)-2-Hydroxy-2-phenylethyl]-8′-pyridin-4-yl-3′,4′-dihydrospiro-[cyclopentane-1,2′-pyrimido[1,2-a]pyrimidin]-6′(1′H)-one] gave a melting point of 221 to 222 °C.
Compound `O=C(CN1c2nc(-c3ccncn3)cc(=O)n2CCC12CCC2)c1ccccc1` [compound No. 10, 1′-(2-Oxo-2-phenylethyl)-8′-pyrimidin-4-yl-3′,4′-dihydrospiro[cyclobutane-1,2′-pyrimido[1,2-a]pyrimidine]-6′(1′H)-one] came in with a melting point of 207 to 208 °C.
As for `O=c1cc(-c2ccncn2)nc2n1CCC1(CCC1)N2C[C@@H](O)c1ccccc1` [compound 11, 1′-[(2S)-2-Hydroxy-2-phenylethyl]-8′-pyrimidin-4-yl-3′,4′-dihydrospiro-[cyclobutane-1,2′-pyrimido[1,2-a]pyrimidin]-6′(1′H)-one], the figure is 186 to 187 °C.
Turning to `O=C(CN1c2nc(-c3ccncn3)cc(=O)n2CCC12CCCC2)c1ccccc1` [compound 6, 1′-[2-Oxo-2-phenylethyl]-8′-pyrimidin-4-yl-3′,4′-dihydrospiro-[cyclopentane-1,2′-pyrimido[1,2-a]pyrimidin]-6′(1′H)-one], the melting point lay within 194 to 196 °C.
As for `O=c1cc(-c2ccncc2)nc2n1CCC1(CC1)N2Cc1ccccc1` (as salt: hydrochloride) [compound 17, 1′-(phenylmethyl)-8′-pyridin-4-yl-3′,4′-dihydrospiro-[cyclopropane-1,2′-pyrimido[1,2-a]pyrimidin]-6′(1′H)-one], the figure is 233 to 235 °C; as for `O=c1cc(-c2ccncn2)nc2n1CCC1(CCC1)N2CCc1ccccc1` [compound 23, 1′-(phenylethyl)-8′-pyrimidin-4-yl-3′,4′-dihydrospiro-[cyclobutane-1,2′-pyrimido[1,2-a]pyrimidin]-6′(1′H)-one], 116 to 167 °C.
Consider `O=c1cc(-c2ccncc2)nc2n1CCC1(CCC1)N2CCc1ccccc1` (as salt: hydrochloride) [compound 21, 1′-(phenylethyl)-8′-pyridin-4-yl-3′,4′-dihydrospiro-[cyclobutane-1,2′-pyrimido[1,2-a]pyrimidin]-6′(1′H)-one], for which the melting point fell in the range of 210 to 211 °C.
As for `O=c1cc(-c2ccncc2)nc2n1CCC1(CC1)N2C[C@@H](O)c1ccccc1` (as salt: hydrochloride) [compound No. 1, 1′-[(2S)-2-Hydroxy-2-phenylethyl]-8′-pyridin-4-yl-3′,4′-dihydrospiro[cyclopropane-1,2′-pyrimido[1,2-a]pyrimidin]-6′(1′H)-one], the figure is 219 to 221 °C.
As for `O=c1cc(-c2ccncn2)nc2n1CCC1(CCCC1)N2CCc1ccccc1` [compound 24, 1′-(phenylethyl)-8′-pyrimidin-4-yl-3′,4′-dihydrospiro-[cyclopentane-1,2′-pyrimido[1,2-a]pyrimidin]-6′(1′H)-one], the figure is 190 to 191 °C; as for `O=c1cc(-c2ccncc2)nc2n1CCC1(CCCC1)N2C[C@@H](O)c1ccccc1` (as salt: hydrochloride) [compound 3, 1′-[(2S)-2-Hydroxy-2-phenylethyl]-8′-pyridin-4-yl-3′,4′-dihydrospiro-[cyclopentane-1,2′-pyrimido[1,2-a]pyrimidin]-6′(1′H)-one], 221 to 223 °C.
As for `O=c1cc(-c2ccncc2)nc2n1CCC1(CCC1)N2C[C@H](O)c1ccccc1` (as salt: hydrochloride) [compound 13, 1′-[(2R)-2-Hydroxy-2-phenylethyl]-8′-pyridin-4-yl-3′,4′-dihydrospiro-[cyclobutane-1,2′-pyrimido[1,2-a]pyrimidin]-6′(1′H)-one], the figure is 218 to 220 °C; as for `O=c1cc(-c2ccncn2)nc2n1CCC1(CCCC1)N2Cc1ccccc1` [compound 16, 1′-(phenylmethyl)-8′-pyrimidin-4-yl-3′,4′-dihydrospiro-[cyclopentane-1,2′-pyrimido[1,2-a]pyrimidin]-6′(1′H)-one], 191 to 193 °C; as for `O=C(CN1c2nc(-c3ccncc3)cc(=O)n2CCC12CCCC2)c1ccccc1` (as salt: hydrochloride) [compound 7, 1′-(2-Oxo-2-phenylethyl)-8′-pyridin-4-yl-3′,4′-dihydrospiro[cyclopentane-1,2′-pyrimido[1,2-a]pyrimidin]-6′(1′H)-one], 161 to 162 °C.
`O=c1cc(-c2ccncc2)nc2n1CCC1(CCCC1)N2CCc1ccccc1` (as salt: hydrochloride) [compound 20, 1′-(phenylethyl)-8′-pyridin-4-yl-3′,4′-dihydrospiro-[cyclopentane-1,2′-pyrimido[1,2-a]pyrimidin]-6′(1′H)-one] displayed a melting point of 208 to 210 °C.
As for `O=c1cc(-c2ccncc2)nc2n1CCC1(CCCC1)N2Cc1ccccc1` (as salt: hydrochloride) [compound 19, 1′-(phenylmethyl)-8′-pyridin-4-yl-3′,4′-dihydrospiro-[cyclopentane-1,2′-pyrimido[1,2-a]pyrimidin]-6′(1′H)-one], the figure is 227 to 228 °C; as for `O=c1cc(-c2ccncc2)nc2n1CCC1(CC1)N2CCc1ccccc1` (as salt: hydrochloride) [compound 22, 1′-(phenylethyl)-8′-pyridin-4-yl-3′,4′-dihydrospiro-[cyclopropane-1,2′-pyrimido[1,2-a]pyrimidin]-6′(1′H)-one], 224 to 225 °C.
Regarding `O=c1cc(-c2ccncn2)nc2n1CCC1(CCC1)N2C[C@H](O)c1ccccc1` [compound 12, 1′-[(2R)-2-Hydroxy-2-phenylethyl]-8′-pyrimidin-4-yl-3′,4′-dihydrospiro-[cyclobutane-1,2′-pyrimido[1,2-a]pyrimidin]-6′(1′H)-one], the melting point was 182 to 184 °C.
`O=c1cc(-c2ccncn2)nc2n1CCC1(CCCC1)N2C[C@H](O)c1ccccc1` [compound 5, 1′-[(2R)-2-Hydroxy-2-phenylethyl]-8′-pyrimidin-4-yl-3′,4′-dihydrospiro-[cyclopentane-1,2′-pyrimido[1,2-a]pyrimidin]-6′(1′H)-one] had a melting point of 155 to 156 °C.

Values taken from patent US7507743B2, “Substituted 8′-pyridinyl-dihydrospiro-[cycloalkyl]-pyrimido[1,2-a] pyrimidin-6-one and 8′-pyrimidinyl-dihydrospiro-[cycloalkyl]-pyrimido[1,2-a] pyrimidin-6-one derivatives” (Sanofi-Aventis, priority 2003, dated 2009).
